In patent US20260041093A1, “Ionic Derivatives Of Aromatic Carboxylic Acid For Use As Plant Stimulants, Method For Stimulating Plants And Use Of These Derivatives For Manufacturing Compositions For Stimulating Plants” (FUNDACJA UNIWERSYTETU IM. ADAMA MICKIEWICZA W POZNANIU, priority 2022, published 2026):
Like-named read-outs stand apart in the source and are kept apart here.

Tests used:
[1] = tested on: Pseudomonas syringae pv. Tomato; test: Direct effect on bacterial infectivity (Example 22); type: in vivo; details: tobacco plant, 5 days after infection with solution of bacteria and test substance; control 100
Method: Proceeding as in example 21, Pseudomonas syringae pv. Tomato bacteria were tested and incubated in bacterial medium.

TMV [2] = test: Protection of tobacco against TMV, single spray, comparison with BION (Example 26); type: in vivo, Nicotiana tabacum cv. Xanthi; details: sprayed once, infected a week later
Method: Tobacco plants (Nicotiana tabacum) cv. Xanthi at the stage of three developed leaves were sprayed once with solutions of substance 1-5 or BION™ at concentrations of 10, 40, 80 mg/L. A week later, they were mechanically infected with TMV by rubbing the leaves with a square soaked in a suspension of purified virus, with a concentration of about 2 μg/ml. The level of protection against the effects of biotic stress was evaluated by comparing the number of necrotic spots caused by TMV on the leaves of plants treated with substances 1-5 and BION™ and control plants.
A reduction in the number of necrotic spots indicates protection from the effects of the biotic agent on the plant.

[3] = tested on: Pseudomonas syringae pv. Tomato (Pst); test: Protection of tomato against Pseudomonas syringae pv. Tomato by spraying (Example 33); type: in vivo, Lycopersicon Esculentum Mill tomato; details: 80 mg/L, sprayed twice; 2 weeks after infection
Method: Tomato plants, at the stage of the first pair of developed true leaves, were watered twice with a solution of substance 1-6 at a concentration of 80 mg/L, at a weekly interval. The control was tomato plants watered only with water. One week after the second treatment, a suspension of Pst bacteria at a concentration of 10^5 was spot-injected into the leaves using an insulin syringe (without a needle). The suspension was prepared from a two-day culture of Pst on solid medium. Protection against biotic stress was evaluated by the proliferation of bacteria in the leaves at the insertion site and the formation of a necrotic spot, compared to the control.
The procedure was followed as in Example 32, with the plants sprayed.

powdery mildew fungus [4] = type: in vivo, tomato; details: 80 mg/L, watered twice; 2 weeks after infection
Method: Tomato plants, at the stage of the first pair of developed true leaves, were watered twice with a solution of substance 1-32 at a concentration of 80 mg/L, at a weekly interval. The control was tomato plants watered only with water. […] The suspension was prepared from culture on solid medium. Protection against biotic stress was evaluated by comparing the area of leaves affected by infection.

[5] = tested on: Pseudomonas syringae pv. Tomato (Pst); details: 2 weeks after infection
Method: Tobacco plants at the stage of 3 developed leaves were watered twice, at a weekly interval, with a solution of test substances 1-11 at concentrations of 10, 40, 80 mg/L. The control was tobacco plants watered with water only. One week after the second treatment, a suspension of Pst bacteria at a concentration of 10^5 was spotted into the leaves using an insulin syringe (without a needle). The suspension was prepared from a two-day culture of Pst on solid medium. Protection against biotic stress was evaluated by the proliferation of bacteria in the leaves at the insertion site and the formation of a necrotic spot, compared to the control.
We proceeded as in Example 30, with the effectiveness of protection against biotic stress tested against bacterial cell concentrations raised to about 10^6.

poinsettia = details: treated three times, 50 mg/L; not watered for 7 days; control plants wilted
Source text: The plants were then subjected to drought stress—they were not watered for 7 days.

TMV [6] = test: Protection of tobacco against TMV infected 3 weeks after the last treatment (Example 27); type: in vivo; details: infected with TMV 3 weeks after the last treatment
Method: They proceeded as in Example 24, using substances 1-4 at concentrations of 10, 40 and 80 mg/L for treatment, with treated and control plants divided into 3 batches and their leaves infected with the virus 1, 2 and 3 weeks after the last treatment, respectively. […] A similar effect occurred with spraying.

powdery mildew fungus [7] = test: Protection of tomato against powdery mildew by spraying (Example 35); type: in vivo, Lycopersicon Esculentum Mill tomato; details: 40 mg/l, sprayed twice; 2 weeks after pathogen inoculation
Method: […] The control was tomato plants watered only with water. […] The suspension was prepared from culture on solid medium. Protection against biotic stress was evaluated by comparing the area of leaves affected by infection.
Proceeded in the way as described in Example 34, with the difference that plants were sprayed and not watered.

[8] = tested on: Tobacco Mosaic Virus (TMV); test: Protection of tobacco against TMV infection by spraying twice (Example 25); type: in vivo, Nicotiana tabacum cv. Xanthi; details: sprayed twice, 7 days after infection
Source text: 5-chlorosalicylate of choline; 3. 3,5-dichlorosalicylate of choline; 4. 3-chlorosalicylate of sodium, 5. 3-chlorosalicylate of potassium, 6. 3-chlorosalicylate of calcium, 7.

C[N+](C)(C)CCO.O=C([O-])c1cccc(Cl)c1O [choline 3-chlorosalicylate]
% of necrotic spots [1]: 99% | % reduction in necrotic spots compared to control (TMV [2]; 10 mg/L): 58% | % reduction in necrotic spots compared to control (TMV [2]; 40 mg/L): 92% | % reduction in necrotic spots compared to control (TMV [2]; 80 mg/L): 98% | % reduction in necrotic spots compared to control [3]: 93% | % reduction in necrotic spots compared to control (powdery mildew fungus [4]): 95% | % reduction in necrotic spots compared to control ([5]; 10 mg/L, watered twice, Pst 10^5): 65% | % reduction in necrotic spots compared to control ([5]; 40 mg/L, watered twice, Pst 10^5): 72% | % reduction in necrotic spots compared to control ([5]; 80 mg/L, bacterial cell concentration raised to about 10^6): 85% | % reduction in necrotic spots compared to control ([5]; 80 mg/L, watered twice, Pst 10^5): 89% | drought effects on the plants (poinsettia): no drought effects were observed | % reduction in necrotic spots compared to control (TMV [6]; 10 mg/L): 58% | % reduction in necrotic spots compared to control (TMV [6]; 40 mg/L): 92% | % reduction in necrotic spots compared to control (TMV [6]; 80 mg/L): 98% | Reduction in necrotic spots (white patches) compared to control (powdery mildew fungus [7]): 72% | % reduction in necrotic spots compared to control ([8]; 10 mg/L): 80% | % reduction in necrotic spots compared to control ([8]; 40 mg/L): 100% | % reduction in necrotic spots compared to control ([8]; 80 mg/L): 85%
